Like-named read-outs stand apart in the source and are kept apart here.
Columns and labels:
Spraque-Dawley rats [1] = experiment: Prostaglandin E2-induced thermal hypersensitivity, warm-water tail withdrawal, single compound studies; assay type: in vivo, rat; conditions: for % MPE (reversal of PGE2-induced thermal hypersensitivity): given 30 min before PGE2
Experimental: Ketamine and dizocilpine are high affinity use-dependent NMDA receptor channel blockers, while memantine is a moderate affinity use-dependent NMDA receptor channel blocker. CGS-19755 is a competitive NMDA antagonist and ifenprodil is a […] polyamine antagonist. Test Method 1: Prostaglandin E2-Induced Thermal Hypersensitivity.
(§1) The terminal 10 cm of the tail was placed into a thermos bottle containing water warmed to 38, 42, 46, 50, 54, or 58° C. The latency in seconds for the animal to remove the tail from the water was used as a measure of nociception.
(§2) Following the assessment of baseline thermal sensitivity, thermal hypersensitivity was produced by a 50 μL injection of 0.1 mg prostaglandin E2 (PGE2) into the terminal 1 cm of the tail. Temperature-effect curves were generated before (baseline) and after (15, 30, 60, 90 and 120 min) the PGE2 injection.
Single compound studies. The ability of drugs to reverse PGE2-induced thermal hypersensitivity was assessed using a single dose time-course procedure. Under this procedure, a single dose of the compound to be tested was administered intraperitoneally (IP), orally (PO) or intranasally (IN) 30 min before the injection of PGE2. […] sensitivity was assessed 30 min after PGE2 injection.
(§3) Test Method 1 Data Analysis—The temperature that produced a half-maximal increase in the tail-withdrawal latency (i.e., T10) was calculated from each temperature-effect curve. The T10 was determined by interpolation from a line drawn between the point above and the point below 10 sec on the temperature-effect curve. For these studies, thermal hypersensitivity was defined as a leftward shift in the temperature-effect curve and a decrease in the T10 value. Reversal of thermal hypersensitivity was defined as a return to baseline of the temperature-effect curve and the T10 value and was calculated according to the following equation:
[formula] in which T10^drug+PGE2 is the T10 after a drug in combination with PGE2, T10^PGE2 is the T10 after PGE2 alone, and T10^baseline is the T10 under control conditions. A % MPE value of 100 indicates a complete return to the baseline thermal sensitivity observed without the PGE2 injection. […] Test Method 2: Chronic Constriction Injury

Spraque-Dawley rats [2] = experiment: Warm-water tail withdrawal combination studies with morphine; assay type: in vivo, rat; conditions: 30 min before testing
Experimental: as §1
Combination compound studies. […] Compounds were administered IP at the same time 30 min before testing.
as §3, with “equation: […]” for “equation:”

Spraque-Dawley rats [3] = assay type: in vivo, rat
Experimental: as §1, §2
Compounds were administered IP at the same time as PGE2, which was administered 30 min before testing.
as §3, with “equation: […]” for “equation:”

[4] = test system: rats trained to discriminate between saline and PCP; conditions: cited from earlier work
Spraque-Dawley rats [5] = experiment: Chronic Constriction Injury-induced tactile hypersensitivity (von Frey); assay type: in vivo, rat; conditions: for % Reversal of CCl-induced tactile hypersensitivity: IP, one week after CCl surgery; for reversal of CCl-induced tactile hypersensitivity (in words): up to doses that produced observable signs of sedation and ataxia
From the text: Rats were anesthetized with 3.5% halothane in O2 at 1 L/min and maintained with 1.5% halothane in O2 during surgery. A modified chronic sciatic nerve constriction injury (Mosconi & Kruger, 1996; Bennett & Xie, 1988) was produced by a cutaneous incision and a blunt dissection through the biceps femoris to expose the sciatic nerve. A PE 90 Polyethylene tubing (Intramedic, Clay Adams; Becton Dickinson Co.) cuff (2 mm length) was placed around the sciatic nerve at the level of the mid-thigh. The wound was closed in layers using 4-0 silk suture and wound clips. Testing was conducted 6-10 days after surgery.
Animals were placed in elevated wire cages and allowed 45-60 minutes to acclimate to the testing room. Baseline tactile sensitivity was assessed using a series of calibrated von Frey monofilaments (Stoelting; Wood Dale, Ill.) 0-3 days before surgery. Von Frey monofilaments were applied to the mid-plantar hind paw in sequential ascending or descending order, as necessary, to hover as closely as possible to the threshold of responses. The threshold was indicated by the lowest force that evoked a brisk withdrawal response to the stimuli. Thus, a withdrawal response led to the presentation of the next lighter stimulus and the lack of a withdrawal response led to the presentation of the next stronger stimulus. Rats with baseline thresholds <10 g force were excluded from the study. […] Under cumulative dosing conditions, compounds were administered IP every 30 minutes with the cumulative dose increasing in ½ log unit increments. Tactile hypersensitivity was assessed 20-30 minutes following each drug administration.
Test Method 2 Data Analysis—The 50% threshold values (in gm force) estimated by the Dixon non-parametric test (Chaplan et al, 1994) was calculated and fifteen-grams of force was used as the maximal force. Dose-effect curves were generated for each experimental condition for each rat. Individual tactile hypersensitivity threshold values were averaged to provide a mean (±1 SEM). Reversal of tactile hypersensitivity was defined as a return to baseline tactile sensitivity and was calculated according to the following equation:
(§4) [formula] in which 50%^drug+CCl is the 50% value after compound in animals approximately one week after CCl surgery, 50%^CCl is the 50% value approximately one week after CCl surgery alone, and 50%^baseline is the 50% value before CCl surgery. Maximal effect of 100% reversal represents a return to the mean pre-operative threshold value for subjects in that experimental condition. Test Method 3: Scheduled-Controlled Responding.

[6] = test system: cingulate and retrosplenial cortices of mice and rats; conditions: cited from earlier work
Spraque-Dawley rats [7] = experiment: Observable signs of sedation and ataxia
Spraque-Dawley rats [8] = experiment: Scheduled-controlled responding (operant responding, food presentation); conditions: for Operant responding: response rate as a percent of control: IP; for rates of responding (in words): schedule of food presentation, Compound A IP or PO at doses that reversed hypersensitivity
From the text: as §4
Rats were trained under a multiple-cycle procedure during experimental sessions conducted five days each week. Each training cycle consisted of a 1-min pretreatment period followed by a 10-min response period. During the pretreatment period, stimulus lights were not illuminated, and responding had no scheduled consequences. During the response period, the left or right stimulus lights were illuminated (counterbalanced among subjects), the response lever was extended and subjects could respond under a fixed ratio 30 schedule of food presentation. Training sessions consisted of 3 consecutive cycles. Testing sessions were identical to training sessions except that a single dose of drug was administered at the start of the first cycle.
Data analysis. Operant response rates from individual animals were averaged for the three cycles during test sessions and were converted to percent of control response rates using the average rate from the previous training day as the control value (i.e., average of three cycles). Data are presented as the mean (±1 SEM) response rate as a percent of control.

monkeys = conditions: cited from earlier work
[9] = IP, CCl-induced tactile hypersensitivity study
[10] = IP, PGE2-induced thermal hypersensitivity study

For CC(C(O)c1ccc(O)cc1)N1CCC(Cc2ccccc2)CC1 (centres unmarked) [ifenfrodil, ifenprodil], the “% MPE (reversal of PGE2-induced thermal hypersensitivity)” value (“% MPE” for short) (Spraque-Dawley rats [1]; IP, 10 mg/kg) was 1% and the “% MPE” value (Spraque-Dawley rats [1]; IP, 30 mg/kg) was 14%.

With CNC1(c2ccccc2Cl)CCCCC1=O (centres unmarked) [ketamine] the “% MPE” value (Spraque-Dawley rats [1]; IP, 10 mg/kg) was 14%, the “% MPE” value (Spraque-Dawley rats [1]; IP, 18 mg/kg) was 9% and the “Change from Baseline (T10)” value (Spraque-Dawley rats [2]; 18.0 mg/kg IP) was −0.3. The “Change from Baseline (T10)” value (Spraque-Dawley rats [3]; 18.0 mg/kg IP with PGE2, PGE2 + vehicle −5.6) was −5.5 and the “substitution for the PCP-like discriminative stimulus effects” value (“substitution” for short) [4] was “substitute for the PCP-like discriminative stimulus effects”.

For O=C(O)[C@H]1C[C@@H](CP(=O)(O)O)CCN1 (relative stereo) [CGS-19755, cis-4-phosphonomethyl-2-piperidine carboxylic acid], the “% MPE” value (Spraque-Dawley rats [1]; IP, 3 mg/kg) was 9%, the “% MPE” value (Spraque-Dawley rats [1]; IP, 10 mg/kg) was 25% and the “% MPE” value (Spraque-Dawley rats [1]; IP, 30 mg/kg) was 9%. The “% Reversal of CCl-induced tactile hypersensitivity” value (shortened to “% Reversal”) (Spraque-Dawley rats [5]; cumulative dose 3 mg/kg) was −9%, the “% Reversal” value (Spraque-Dawley rats [5]; cumulative dose 10 mg/kg) was −5% and the “% Reversal” value (Spraque-Dawley rats [5]; cumulative dose 30 mg/kg) was −17%. For the same compound, the “reversal of CCl-induced tactile hypersensitivity (in words)” value (Spraque-Dawley rats [5]) was “none of the comparative compounds produced any reversal”, the “vacuolization (in words)” value ([6]; cingulate and retrosplenial cortices of mice and rats) was “caused vacuolization at behaviorally effective doses” and the effectiveness/vacuolization ratio ([6]; mice and rats, behaviorly effective doses) was 1. For the same compound, the “doses that produced observable signs of sedation and ataxia” value (from here on “doses that produced observable signs”) (Spraque-Dawley rats [7]; [9]) was less than 30 mg/kg.

For CN1CC[C@]23c4c5ccc(O)c4O[C@H]2[C@@H](O)C=C[C@H]3[C@H]1C5 [Morphine, morphine], the “Change from Baseline (T10)” value (Spraque-Dawley rats [2]; morphine 5.6 mg/kg IP) was “+2.3” and the “Change from Baseline (T10)” value (Spraque-Dawley rats [3]; rat, in vivo) was “+0.3”.

In the case of O=c1c2c(c1=O)N(Cc1nnn[nH]1)CCCN2 [Compound B, 2-[(1H-Tetrazol-5-yl)methyl]-2,6-diazabicyclo[5.2.0]-non-1-(7)-ene-8,9-dione], the “% MPE” value (Spraque-Dawley rats [1]; PO, 3 mg/kg) is reported as 16%, the “% MPE” value (Spraque-Dawley rats [1]; PO, 10 mg/kg) is reported as 92% and the “% MPE” value (Spraque-Dawley rats [1]; PO, 30 mg/kg) is reported as 101%. The “reversal of PGE2-induced thermal hypersensitivity (in words)” value (Spraque-Dawley rats [1]; rat, in vivo) was “full reversal”, the “% Reversal” value (Spraque-Dawley rats [5]; cumulative dose 1 mg/kg) was 13% and the “% Reversal” value (Spraque-Dawley rats [5]; cumulative dose 3 mg/kg) was 14%. The “% Reversal” value (Spraque-Dawley rats [5]; cumulative dose 10 mg/kg, 10 mg/kg) was 40%, the “% Reversal” value (Spraque-Dawley rats [5]; cumulative dose 30 mg/kg) was 12% and the sedation or ataxia (Spraque-Dawley rats [7]; doses used in the CCl-induced tactile hypersensitivity study, IP) was “not associated with sedation or ataxia”.

For C[C@]12N[C@H](Cc3ccccc31)c1ccccc12 [dizocilpine], the “% MPE” value (Spraque-Dawley rats [1]; IP, 0.3 mg/kg) was 18%, the “Operant responding: response rate as a percent of control” value (Spraque-Dawley rats [8]; 0.1 mg/kg) was 63% and the “Operant responding: response rate as a percent of control” value (Spraque-Dawley rats [8]; 0.3 mg/kg) was 16%. The “rates of responding (in words)” value (Spraque-Dawley rats [8]) was “dose-dependently decreased rates of responding”, the “substitution” value [4] was “substitute for the PCP-like discriminative stimulus effects” and the “doses that produced observable signs” value (Spraque-Dawley rats [7]; [10]) was less than 0.3 mg/kg.

With CC12CC3CC(C)(C1)CC(N)(C3)C2 [memantine] the “% MPE” value (Spraque-Dawley rats [1]; IP, 3 mg/kg) was 13%, the “% MPE” value (Spraque-Dawley rats [1]; IP, 10 mg/kg) was 15% and the “% MPE” value (Spraque-Dawley rats [1]; PO, 10 mg/kg) was −1%. The “% MPE” value (Spraque-Dawley rats [1]; PO, 30 mg/kg) was 11%, the “% MPE” value (Spraque-Dawley rats [1]; PO, 100 mg/kg) was 5% and the “% Reversal” value (Spraque-Dawley rats [5]; cumulative dose 3 mg/kg) was −25%. For the same compound, the “% Reversal” value (Spraque-Dawley rats [5]; cumulative dose 10 mg/kg) was −45%, the “reversal of CCl-induced tactile hypersensitivity (in words)” value (Spraque-Dawley rats [5]) was “none of the comparative compounds produced any reversal” and the “Operant responding: response rate as a percent of control” value (Spraque-Dawley rats [8]; 3 mg/kg) was 93%. The “Operant responding: response rate as a percent of control” value (Spraque-Dawley rats [8]; 10 mg/kg) was 2%, the “rates of responding (in words)” value (Spraque-Dawley rats [8]) was “dose-dependently decreased rates of responding” and the self-administration (monkeys) was “maintains self-administration”. For the same compound, the “substitution” value [4] was “substitute for the PCP-like discriminative stimulus effects”, the “doses that produced observable signs” value (Spraque-Dawley rats [7]; [9]) was less than 10 mg/kg and the “doses that produced observable signs” value (Spraque-Dawley rats [7]; [10]) was less than 10 mg/kg. The “doses that produced observable signs” value (Spraque-Dawley rats [7]; PO, PGE2-induced thermal hypersensitivity study) was less than 100 mg/kg.
